Data: patent US12459951B2, “Compounds that interact with RAS superfamily proteins for treatment of cancers, inflammatory diseases, rasopathies, and fibrotic disease” (SHY Therapeutics, LLC, priority 2022, dated 2025)
Counter-ions that a name gives are not always drawn. Like-named read-outs stand apart in the source and are kept apart here. One block for each compound: values may come before it.

Columns and labels:
[1] = tested on: MiaPaca-2 (expressing KRAS G12C mutant); assay: Proliferation Assay (Cell Viability Assay); type: cell-based; conditions: Homo sapiens, MIA PaCa-2
Procedure: Protocol for Proliferation Assay
This assay is referred to as the “Proliferation Assay” or “Cell Viability Assay” throughout this application.
Cell lines: Human tumor-derived cell lines were purchased from American Type Culture Collection. Human tumor-derived pancreatic cancer cell line MiaPaca-2 (expressing KRAS G12C mutant) and Panc-1 (expressing KRas G12D mutant), and Human non-small cell lung cancer (NSCLC) cell line A549 (expressing KRas G12S mutant) were grown in complete DMEM-High Glucose medium. Human colon cancer cell line SW-620 (expressing KRas G12V mutant) was grown in RPMI 1640 medium. All cell lines were supplemented with penicillin (100 U/mL), streptomycin (100 μg/mL), and 10% heat-inactivated FBS at 37° C. in a humidified incubator with 5% CO2.
(§1) Method: Cells were plated at 2000 to 5000 cells/well density in 96-wells plate and cultured overnight. Small molecules to be tested were added to the cells in the final concentration of 10 μM in the presence of 0.3% DMSO and 10% FBS and incubated for 2-4 days at 37° C. in a humidified incubator with 5% CO2. For IC50 value determination, serial dilutions of compounds were added to cells under the same conditions.
Assay: At the end of the incubation period, cell viability was determined using the CellTiter 96® Aqueous One Solution Cell Proliferation Assay according to manufacturer specifications (Promega, Madison, WI). The percentage of small molecules inhibition of cellular proliferation was calculated from raw data.
Cell lines: these Human tumor-derived cell lines were purchased from American Type Culture Collection. Human tumor-derived pancreatic cancer cell line MiaPaca-2 (expressing KRAS G12C mutant) and Panc-1 (expressing KRas G12D mutant), and Human non-small cell lung cancer (NSCLC) cell line A549 (expressing KRas G12S mutant), and Human melanoma cell line A375 (wild type Kras) were grown in complete DMEM-High Glucose medium. Human tumor-derived pancreatic cancer cell lines SU86.86 (expressing KRas G12D mutant), BxPC3 (expressing wild type K-Ras), and Human non-small cell lung cancer (NSCLC) cell lines NCI-H441 (expressing KRas G12S mutant), NCI-H1975 (expressing wild type KRas), NCI-H358 (expressing KRas G12C mutant), NCI-H1299 (expressing NRas Q61H mutant), and Human colon cancer cell line SW-620 (expressing KRas G12V mutant), Human triple negative breast cancer cell line HCC-1806 (expressing wild type KRas), and Human tumor-derived multiple myeloma cell line MM.1R (expressing wild type KRAS), were grown in RPMI 1640 medium. Human tumor-derived breast cancer cell line BT-549 (expressing wild type KRAS) was grown in RPMI 1640 medium in the presence of 11.8U insulin. Human tumor-derived pancreatic cancer cell line HPAF-II (expressing KRas G12D mutant), Human triple negative breast cancer cell line BT-20 (expressing wild type KRas), and Human colon cancer cell line LS123 (expressing KRas G12S mutant), were grown in EMEM medium. Human tumor-derived pancreatic cancer cell line CF-PAC1 (expressing KRas G12V mutant) was frown in IMDM medium, and Human colon cancer cell line HT29 (expressing wild type KRas) was grown in McCoy's 5A medium. The colon cancer cell line GP2d (expressing KRas G12D mutant) was purchased from MilliporeSigma and grown in DMEM-High Glucose medium. All cell lines were supplemented with penicillin (100 U/mL), streptomycin (100 μg/mL), and 10% heat-inactivated FBS at 37° C. in a humidified incubator with 5% CO2.
as §1, with “that were” for “to be”, “FBS,” for “FBS”

[2] = tested on: Smad2/Smad3 phosphorylation; assay: Phospho-Smad2/3 Inhibition Assay (western blot), Panc-1; type: cell-based, human; conditions: at 10 μM, Panc-1 pancreatic cancer cell line; starred symbols = activation
Procedure: Protocol for Phospho-Smad2/3 Inhibition Assay
This assay is referred to as the “Phospho-Smad2/3 Inhibition Assay” throughout this application.
Cell lines: Human tumor-derived pancreatic cancer cell line Panc-1 (expressing KRas G12D mutant) and mouse muscle myoblast C2C12 were purchased from American Type Culture Collection and grown in complete DMEM-High Glucose, supplemented with penicillin (100 U/mL), streptomycin (100 μg/mL), and 10% heat-inactivated FBS at 37° C. in a humidified incubator with 5% CO2.
Method: Cells were plated at 350000 cells/well density in a 12-well plate, allowed 3 hours to adhere to the plate, then starved in the appropriate medium in the presence of 0.5% FBS overnight. The small molecules to be tested were added to the cells in the final concentration of 10 μM in the presence of 0.3% DMSO for 3 hours incubation at 37° C. For IC50 value determination, serial dilutions of compounds were added to cells under the same conditions. Next, Panc-1 cells were stimulated with 10 ng/ml TGF-b1 for 1 hour, and C2C12 cells were stimulated with 10 ng/ml TGF-b1 for 20 minutes (recombinant human TGF-b1, R&D Systems). After stimulation cells were lysed with lysis buffer containing 1% Triton X-100, EDTA, and Halt™ Protease & Phosphatase Inhibitor Cocktail (Thermo Scientific). Protein concentration was assessed by BCA protein assay (Thermo Scientific). Phosphorylation level of Smad2/Smad3 was determined by western blot.
Western blot protocol: Equal amounts of protein (15-50 μg) were separated by SDS-PAGE and transferred to nitrocellulose membranes (Invitrogen by Thermo Fisher Scientific). The membrane was stained with Ponceau S Stain (Boston BioProducts) to verify uniform protein loading. Membranes were blocked with 10% milk and phosphorylation levels of Smad2/Smad3 were assessed by incubating overnight at 4° C. with the following antibodies: Phospho-Smad2 (Ser465/467) and Phosph-Smad3 (Ser423/425), both from Cell Signaling Technology. Then the membranes were incubated with HRP-conjugated secondary antibody (Jackson Immunoresearch, West Grove, PA). Bands were incubated in Amersham ECL Prime Western Blotting Detection Reagent (GE Healthcare) and visualized using the ChemiDoc MP imaging system (Bio-Rad).

[3] = read-out: Proliferation in MiaPaca-2: IC50
[4] = Proliferation assay, MiaPaca-2, read-out: MiaPaca-2 IC50 (nM) Pancreatic

Structure (SMILES): Cc1c(-c2ccn(C)n2)cn2nc(-c3nccn3C)nc(Cl)c12 [Compound 99, 4-Chloro-5-methyl-2-(1-methyl-1H-imidazol-2-yl)-6-(1-methyl-1H-pyrazol-3-yl)pyrrolo[2,1-f][1,2,4]triazine]
- IC50 [1, 3]: > 1000 nM
- % inh of Smad2/3 phosphorylation in Panc-1 [2]: D (D = 76-100% inhibition)

Structure (SMILES): CO[C@H]1C[C@H](Nc2nc(-c3nccn3C)nn3cc(-c4ccn(C)n4)c(C)c23)C1 [Compound 103, N-((1r,3r)-3-Methoxycyclobutyl)-5-methyl-2-(1-methyl-1H-imidazol-2-yl)-6-(1-methyl-1H-pyrazol-3-yl)pyrrolo[2,1-f][1,2,4]triazin-4-amine hydrochloride salt]
- IC50 [1, 3]: > 1000 nM
- % inh of Smad2/3 phosphorylation in Panc-1 [2]: C* (C* = 46-75% activation)

Structure (SMILES): Cc1c(-c2ccn(C)n2)cn2nc(-c3nccn3C)nc(Nc3nccc(OCCN(C)C)n3)c12 [Compound 105, N-(4-(2-(Dimethylamino)ethoxy)pyrimidin-2-yl)-5-methyl-2-(1-methyl-1H-imidazol-2-yl)-6-(1-methyl-1H-pyrazol-3-yl)pyrrolo[2,1-f][1,2,4]triazin-4-amine]
- IC50 [1, 3]: 510 to 1000 nM
- % inh of Smad2/3 phosphorylation in Panc-1 [2]: A (A = 1-25% inhibition)

Structure (SMILES): CCc1nc(Nc2nc(-c3nccn3C)nn3cc(-c4ccn(C)n4)c(C)c23)nn1C [Compound 108, N-(5-Ethyl-1-methyl-1H-1,2,4-triazol-3-yl)-5-methyl-2-(1-methyl-1H-imidazol-2-yl)-6-(1-methyl-1H-pyrazol-3-yl)pyrrolo[2,1-f][1,2,4]triazin-4-amine]
- IC50 [1, 3]: 510 to 1000 nM
- % inh of Smad2/3 phosphorylation in Panc-1 [2]: D* (D* = 76-100% activation)

Structure (SMILES): Cc1c(-c2ccn(C)n2)cn2nc(-c3nccn3C)nc(Nc3cn(C(C)C)nn3)c12 [Compound 109, N-(1-Isopropyl-1H-1,2,3-triazol-4-yl)-5-methyl-2-(1-methyl-1H-imidazol-2-yl)-6-(1-methyl-1H-pyrazol-3-yl)pyrrolo[2,1-f][1,2,4]triazin-4-amine]
- IC50 [1, 3]: 510 to 1000 nM
- % inh of Smad2/3 phosphorylation in Panc-1 [2]: D* (D* = 76-100% activation)

Structure (SMILES): Cc1c(-c2ccn(C)n2)cn2nc(-c3nccn3C)nc(Nc3ccn(C4CC4)n3)c12 [Compound 111, N-(1-Cyclopropyl-1H-pyrazol-3-yl)-5-methyl-2-(1-methyl-1H-imidazol-2-yl)-6-(1-methyl-1H-pyrazol-3-yl)pyrrolo[2,1-f][1,2,4]triazin-4-amine]
- IC50 [1, 3]: 150 to 500 nM
- % inh of Smad2/3 phosphorylation in Panc-1 [2]: D* (D* = 76-100% activation)

The next lines start with results.

- IC50 [1, 3]: < 150 nM
Structure (SMILES): COc1cc(Nc2nc(-c3nccn3C)nn3cc(-c4ccn(C(F)F)n4)c(C)c23)ncn1 [Compound 98, 6-(1-(Difluoromethyl)-1H-pyrazol-3-yl)-N-(6-methoxypyrimidin-4-yl)-5-methyl-2-(1-methyl-1H-imidazol-2-yl)pyrrolo[2,1-f][1,2,4]triazin-4-amine]
- % inh of Smad2/3 phosphorylation in Panc-1 [2]: D (D = 76-100% inhibition)

- IC50 [1, 4]: 1 to 10 nM
- IC50 [1, 3]: < 150 nM
Structure (SMILES): Cc1c(-c2ccn(C)n2)cn2nc(-c3nccn3C)nc(Nc3cc4n(n3)CCC4)c12 [Compound 100, N-(5,6-Dihydro-4H-pyrrolo[1,2-b]pyrazol-2-yl)-5-methyl-2-(1-methyl-1H-imidazol-2-yl)-6-(1-methyl-1H-pyrazol-3-yl)pyrrolo[2,1-f][1,2,4]triazin-4-amine]
- % inh of Smad2/3 phosphorylation in Panc-1 [2]: C* (C* = 46-75% activation)

- IC50 [1, 3]: 150 to 500 nM
Structure (SMILES): Cc1c(-c2ccn(C)n2)cn2nc(-c3nccn3C)nc(Nc3cc(OCCO)ncn3)c12 [Compound 101, 2-((6-((5-Methyl-2-(1-methyl-1H-imidazol-2-yl)-6-(1-methyl-1H-pyrazol-3-yl)pyrrolo[2,1-f][1,2,4]triazin-4-yl)amino)pyrimidin-4-yl)oxy) ethan-1-ol]
- % inh of Smad2/3 phosphorylation in Panc-1 [2]: D* (D* = 76-100% activation)

- IC50 [1, 4]: 1 to 10 nM
- IC50 [1, 3]: < 150 nM
Structure (SMILES): COc1ccnc(Nc2nc(-c3nccn3C)nn3cc(-c4ccn(C)n4)c(C)c23)c1 [Compound 102, N-(4-Methoxypyridin-2-yl)-5-methyl-2-(1-methyl-1H-imidazol-2-yl)-6-(1-methyl-1H-pyrazol-3-yl)pyrrolo[2,1-f][1,2,4]triazin-4-amine]
- % inh of Smad2/3 phosphorylation in Panc-1 [2]: A* (A* = 1-25% activation)

- IC50 [1, 4]: 1 to 10 nM
- IC50 [1, 3]: < 150 nM
Structure (SMILES): Cc1c(-c2ccn(C)n2)cn2nc(-c3nccn3C)nc(Nc3cc(C4CC4)[nH]n3)c12 [Compound 104, N-(5-Cyclopropyl-1H-pyrazol-3-yl)-5-methyl-2-(1-methyl-1H-imidazol-2-yl)-6-(1-methyl-1H-pyrazol-3-yl)pyrrolo[2,1-f][1,2,4]triazin-4-amine]
- % inh of Smad2/3 phosphorylation in Panc-1 [2]: D* (D* = 76-100% activation)

- IC50 [1, 3]: < 150 nM
Structure (SMILES): Cc1c(-c2ccn(C)n2)cn2nc(-c3nccn3C)nc(Nc3nccn3C)c12 [Compound 106, 5-Methyl-N,2-bis(1-methyl-1H-imidazol-2-yl)-6-(1-methyl-1H-pyrazol-3-yl)pyrrolo[2,1-f][1,2,4]triazin-4-amine]
- % inh of Smad2/3 phosphorylation in Panc-1 [2]: D* (D* = 76-100% activation)

- IC50 [1, 3]: < 150 nM
Structure (SMILES): COc1cncnc1Nc1nc(-c2nccn2C)nn2cc(-c3ccn(C)n3)c(C)c12 [Compound 107, N-(5-Methoxypyrimidin-4-yl)-5-methyl-2-(1-methyl-1H-imidazol-2-yl)-6-(1-methyl-1H-pyrazol-3-yl)pyrrolo[2,1-f][1,2,4]triazin-4-amine]
- % inh of Smad2/3 phosphorylation in Panc-1 [2]: A (A = 1-25% inhibition)

- IC50 [1, 3]: < 150 nM
Structure (SMILES): COc1cnc(Nc2nc(-c3nccn3C)nn3cc(-c4ccn(C)n4)c(C)c23)cn1 [Compound 110, N-(5-Methoxypyrazin-2-yl)-5-methyl-2-(1-methyl-1H-imidazol-2-yl)-6-(1-methyl-1H-pyrazol-3-yl)pyrrolo[2,1-f][1,2,4]triazin-4-amine]
- % inh of Smad2/3 phosphorylation in Panc-1 [2]: A* (A* = 1-25% activation)
